Results from PubChem BioAssay AID328 (DTP/NCI, 2004).
Where “and” joins values, the source holds several entries; their conditions need not be identical. Equal values may be shown once. Toxic doses and inconclusive results are not listed.

System: BDF1 mice, P388 leukemia ip, median survival T/C
Experiment: NCI In Vivo Anticancer Drug Screen. Data for tumor model P388 Leukemia (intraperitoneal) in B6D2F1 (BDF1) mice
Conditions: endpoint: median survival time, higher = longer survival
Method in brief: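 T/C = treated-group survival ÷ vehicle-control survival; tumour transplanted into mice before dosing.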

[1] = dose: 100.0 mg/kg/injection, schedule: Q01DX009 (ip), vehicle: Klucel (hydroxypropylcellulose) (HPC)
[2] = dose: 400.0 mg/kg/injection, schedule: Q01DX009 (ip), vehicle: Klucel (hydroxypropylcellulose) (HPC)
[3] = dose: 200.0 mg/kg/injection, schedule: Q01DX009 (ip), vehicle: Klucel (hydroxypropylcellulose) (HPC)
[4] = dose: 400.0 mg/kg/injection, schedule: Q01DX009 (ip), vehicle: saline
[5] = dose: 25.0 mg/kg/injection, schedule: Q01DX009 (ip), vehicle: saline with Tween-80
[6] = dose: 50.0 mg/kg/injection, schedule: Q01DX009 (ip), vehicle: saline with Tween-80
[7] = dose: 100.0 mg/kg/injection, schedule: Q01DX009 (ip), vehicle: saline with Tween-80
[8] = dose: 200.0 mg/kg/injection, schedule: Q01DX009 (ip), vehicle: saline with Tween-80
[9] = dose: 400.0 mg/kg/injection, schedule: Q01DX009 (ip), vehicle: saline with Tween-80
[10] = dose: 100.0 mg/kg/injection, schedule: Q04DX003 (ip), vehicle: saline with Tween-80
[11] = dose: 200.0 mg/kg/injection, schedule: Q04DX003 (ip), vehicle: saline with Tween-80
[12] = dose: 400.0 mg/kg/injection, schedule: Q04DX003 (ip), vehicle: saline with Tween-80

For `CCOC(=O)c1cc(C(=O)OCC)c(C#N)c(=O)[nH]1`, the T/C [1] was 96 % of control, the T/C (dose: 100.0 mg/kg/injection, schedule: Q04DX003 (ip), vehicle: Klucel (hydroxypropylcellulose) (HPC)) was 91 % of control and the T/C (dose: 200.0 mg/kg/injection, schedule: Q04DX003 (ip), vehicle: Klucel (hydroxypropylcellulose) (HPC)) was 91 % of control. For the same compound, the T/C [2] was 92 % of control and the T/C (dose: 400.0 mg/kg/injection, schedule: Q04DX003 (ip), vehicle: Klucel (hydroxypropylcellulose) (HPC)) was 100 % of control.

`CC1NNC(=O)C1(Br)Br` (centres undefined) was tested, and the T/C (dose: 1.56 mg/kg/injection, schedule: Q01DX009 (ip), vehicle: gum acacia) was 113 % of control, the T/C (dose: 3.12 mg/kg/injection, schedule: Q01DX009 (ip), vehicle: gum acacia) was 113 % of control and the T/C (dose: 6.25 mg/kg/injection, schedule: Q01DX009 (ip), vehicle: gum acacia) was 94 % of control.

With `N#Cc1cc2c3c(c1)CCCN3CCC2` the T/C (dose: 40.0 mg/kg/injection, schedule: Q01DX001 (ip), vehicle: saline with Tween-80) was 100 % of control, the T/C (dose: 80.0 mg/kg/injection, schedule: Q01DX001 (ip), vehicle: saline with Tween-80) was 95 % of control and the T/C (dose: 160.0 mg/kg/injection, schedule: Q01DX001 (ip), vehicle: saline with Tween-80) was 109 % of control.

For `O=CC(C=O)[N+](=O)[O-]`, the T/C [1] was 91 % of control, the T/C [3] was 95 % of control and the T/C [2] was 108 % of control.

For `c1cncc(-c2ncnc3c2Cc2ccccc2-3)c1`, the T/C (dose: 75.0 mg/kg/injection, schedule: Q01DX009 (ip), vehicle: Klucel (hydroxypropylcellulose) (HPC)) was 100 % of control and the T/C (dose: 150.0 mg/kg/injection, schedule: Q01DX009 (ip), vehicle: Klucel (hydroxypropylcellulose) (HPC)) was 113 % of control.

With `Cc1ccc(S(=O)(=O)OCCN(CCOS(=O)(=O)c2ccc(C)cc2)c2cc(OCc3ccccc3)cc(OCc3ccccc3)c2)cc1` the T/C (dose: 1.56 mg/kg/injection, schedule: Q01DX009 (ip), vehicle: water) was 90 % of control and 99 % of control, the T/C (dose: 3.12 mg/kg/injection, schedule: Q01DX009 (ip), vehicle: water) was 93 % of control and 100 % of control and the T/C (dose: 6.25 mg/kg/injection, schedule: Q01DX009 (ip), vehicle: water) was 98 % of control and 110 % of control. For the same compound, the T/C (dose: 12.5 mg/kg/injection, schedule: Q01DX009 (ip), vehicle: water) was 91 % of control and 100 % of control, the T/C (dose: 25.0 mg/kg/injection, schedule: Q01DX009 (ip), vehicle: water) was 93 % of control and 100 % of control and the T/C (dose: 50.0 mg/kg/injection, schedule: Q04DX003 (ip), vehicle: water) was 91 % of control. The T/C (dose: 100.0 mg/kg/injection, schedule: Q01DX009 (ip), vehicle: water) was 88 % of control, the T/C (dose: 100.0 mg/kg/injection, schedule: Q04DX003 (ip), vehicle: water) was 89 % of control and the T/C (dose: 200.0 mg/kg/injection, schedule: Q04DX003 (ip), vehicle: water) was 97 % of control. For the same compound, the T/C (dose: 400.0 mg/kg/injection, schedule: Q04DX003 (ip), vehicle: water) was 97 % of control.

In the case of `CC(C)CCNc1ccc(NCCC(C)C)cc1`, the T/C (dose: 2.34 mg/kg/injection, schedule: Q01DX009 (ip), vehicle: alcohol) is reported as 100 % of control, the T/C (dose: 4.68 mg/kg/injection, schedule: Q01DX009 (ip), vehicle: alcohol) is reported as 100 % of control and the T/C (dose: 9.37 mg/kg/injection, schedule: Q01DX009 (ip), vehicle: alcohol) is reported as 112 % of control. The T/C (dose: 13.75 mg/kg/injection, schedule: Q04DX003 (ip), vehicle: alcohol) was 109 % of control, the T/C (dose: 18.75 mg/kg/injection, schedule: Q01DX009 (ip), vehicle: alcohol) was 122 % of control and the T/C (dose: 27.5 mg/kg/injection, schedule: Q04DX003 (ip), vehicle: alcohol) was 109 % of control.

In the case of `CNNCc1ccc(C(=O)NC(N)=O)cc1`, the T/C (dose: 100.0 mg/kg/injection, schedule: Q04DX003 (ip), vehicle: saline) is reported as 95 % of control, the T/C (dose: 133.0 mg/kg/injection, schedule: Q01DX009 (ip), vehicle: saline) is reported as 111 % of control and the T/C (dose: 200.0 mg/kg/injection, schedule: Q01DX009 (ip), vehicle: saline) is reported as 100 % of control. The T/C (dose: 200.0 mg/kg/injection, schedule: Q04DX003 (ip), vehicle: saline) was 95 % of control, the T/C [4] was 107 % of control and the T/C (dose: 400.0 mg/kg/injection, schedule: Q04DX003 (ip), vehicle: saline) was 113 % of control.

With `C[C@H](CCC[C@H](C)OS(=O)(=O)c1ccccc1)OS(=O)(=O)c1ccccc1` the T/C [5] was 117 % of control, the T/C [6] was 99 % of control and 116 % of control and the T/C [7] was 155 % of control. The T/C [8] was 156 % of control and 180 % of control and the T/C [9] was 182 % of control.

In the case of `CC(CC#N)NC(=O)C1CCC(N)=N1` (centres undefined), the T/C (dose: 100.0 mg/kg/injection, schedule: Q01DX009 (ip), vehicle: saline) is reported as 111 % of control and the T/C [4] is reported as 103 % of control.

In the case of `COC(=O)c1ccccc1OP(=O)(N(C)C)N(C)C`, the T/C [6] is reported as 94 % of control, the T/C [7] is reported as 110 % of control and the T/C [8] is reported as 105 % of control.

In the case of `CC(C)CCSc1nc(N)nc2nc[nH]c12`, the T/C (dose: 100.0 mg/kg/injection, schedule: Q01DX009 (ip), vehicle: other) is reported as 86 % of control, the T/C [10] is reported as 100 % of control and the T/C (dose: 200.0 mg/kg/injection, schedule: Q01DX009 (ip), vehicle: other) is reported as 90 % of control. For the same compound, the T/C [11] was 109 % of control, the T/C (dose: 400.0 mg/kg/injection, schedule: Q01DX009 (ip), vehicle: other) was 109 % of control and the T/C [12] was 109 % of control.

With `O=S(=O)(O)O.[Co+3].[Co+3].[NH2-].[NH2-].[NH2-].[NH2-].[NH2-].[NH2-].[NH2-].[NH2-].[NH2-].[NH2-].[O-][O-]` the T/C (dose: 1.56 mg/kg/injection, schedule: Q01DX009 (ip), vehicle: saline) was 97 % of control, the T/C (dose: 3.13 mg/kg/injection, schedule: Q01DX009 (ip), vehicle: saline) was 98 % of control and the T/C (dose: 6.25 mg/kg/injection, schedule: Q01DX009 (ip), vehicle: saline) was 97 % of control.

With `CC(=O)Nc1ccc2c(c1)C(N)c1ccccc1-2` (centres undefined) the T/C [6] was 100 % of control, the T/C [7] was 104 % of control and the T/C (dose: 133.0 mg/kg/injection, schedule: Q01DX009 (ip), vehicle: Klucel (hydroxypropylcellulose) (HPC)) was 95 % of control. For the same compound, the T/C [3] was 105 % of control, the T/C [8] was 87 % of control and the T/C (dose: 300.0 mg/kg/injection, schedule: Q01DX009 (ip), vehicle: Klucel (hydroxypropylcellulose) (HPC)) was 100 % of control.

`NCCNCc1c[nH]c(=O)[nH]c1=O` was tested, and the T/C [6] was 113 % of control, the T/C [7] was 111 % of control and the T/C [8] was 101 % of control.

`Cc1cc(N=NC(N)=S)c2ccccc2c1O` was tested, and the T/C [7] was 103 % of control and the T/C [8] was 100 % of control.

For `CC(C)n1c(=O)c2ccccc2[s+]1-c1ccccc1` (centres undefined), the T/C (dose: 100.0 mg/kg/injection, schedule: Q01DX001 (ip), vehicle: saline with Tween-80) was 95 % of control, the T/C (dose: 200.0 mg/kg/injection, schedule: Q01DX001 (ip), vehicle: saline with Tween-80) was 95 % of control and the T/C (dose: 400.0 mg/kg/injection, schedule: Q01DX001 (ip), vehicle: saline with Tween-80) was 92 % of control.

In the case of `CCCCN(C(=O)C(F)(F)F)C(C)(C)C(SSSC(c1ccc(Cl)cc1)C(C)(C)N(CCCC)C(=O)C(F)(F)F)c1ccc(Cl)cc1` (centres undefined), the T/C [7] is reported as 100 % of control, the T/C [10] is reported as 100 % of control and the T/C [8] is reported as 100 % of control. The T/C [11] was 100 % of control, the T/C [9] was 100 % of control and the T/C [12] was 118 % of control.

`C=CC1CN2CCC1CC2C(O)c1ccnc2ccccc12` (centres undefined) was tested, and the T/C (dose: 50.0 mg/kg/injection, schedule: Q04DX003 (ip), vehicle: saline with Tween-80) was 102 % of control, the T/C [10] was 88 % of control and the T/C [11] was 107 % of control.

For `Cc1ccc(N)c(CSc2ccccc2)c1`, the T/C (dose: 50.0 mg/kg/injection, schedule: Q04DX002 (ip), vehicle: saline with Tween-80) was 95 % of control, the T/C (dose: 100.0 mg/kg/injection, schedule: Q04DX002 (ip), vehicle: saline with Tween-80) was 97 % of control and the T/C (dose: 200.0 mg/kg/injection, schedule: Q04DX002 (ip), vehicle: saline with Tween-80) was 98 % of control.

For `ClC1CC[N-]CC1.ClC1CC[N-]CC1.[Cl][Pt+2]([Cl])([Cl])[Cl]`, the T/C (dose: 12.5 mg/kg/injection, schedule: Q01DX009 (ip), vehicle: Klucel (hydroxypropylcellulose) (HPC)) was 182 % of control, the T/C (dose: 25.0 mg/kg/injection, schedule: Q01DX009 (ip), vehicle: Klucel (hydroxypropylcellulose) (HPC)) was 221 % of control and the T/C (dose: 50.0 mg/kg/injection, schedule: Q01DX009 (ip), vehicle: Klucel (hydroxypropylcellulose) (HPC)) was 115 % of control.

In the case of `COc1c(O)c(OC)c(C(=O)/C=C/c2ccccc2)c(O)c1OC`, the T/C [5] is reported as 107 % of control, the T/C [6] is reported as 114 % of control and the T/C [7] is reported as 99 % of control.
